Laboratory results as given in ChEMBL document CHEMBL1136874, “Novel carbazole and acyl-indole antimitotics” (Bioorg Med Chem Lett, 2009).
Activity calls are given as the source filed them. The calls are words filed in the database; no cut-off is given here.

Columns and labels:
HT-29 = assay: Cytotoxicity against human HT-29 cells; assay type: functional
K562 = assay: Cytotoxicity against human K562 cells; assay type: functional
MCF7 = assay: Cytotoxicity against human MCF7 cells; assay type: functional
SW-620 = assay: Cytotoxicity against human SW620 cells; assay type: functional
[1] = Displacement of [3H]colchicine from tubulin
PC-3 = assay: Cytotoxicity against human PC3 cells; assay type: functional
[2] = Cell cycle arrest in human leukemic cells assessed as mitotic block by cytometry; assay type: functional, cell-based; details: Leukemia cell
[3] = Inhibition of tubulin polymerization
[4] = Displacement of labeled vinblastine from tubulin
[5] = Cell cycle arrest in human leukemic cells assessed as blockage in G2/M phase by high content cellular analysis; assay type: functional, cell-based; details: Leukemia cell
Leukemia cell [6] = assay: Induction of apoptosis in human leukemic cells; assay type: functional, cell-based
Leukemia cell [7] = assay: Increase in phospho-Histone H3-ser10 level in human leukemic cells by flow cytometry; assay type: functional, cell-based

**Q.** For `CN[C@H]1CCc2cc(OC)c(OC)c(OC)c2-c2ccc(OC)c(=O)cc21` [DEMECOLCINE], which Activity (HT-29) is on record?
**A.** The Activity was 25 nM.

**Q.** And the Activity (K562)?
**A.** Its Activity is 16 nM.

**Q.** And the Activity (MCF7)?
**A.** Its Activity is 7.8 nM.

**Q.** And the Activity (SW-620)?
**A.** Its Activity is 31 nM.

**Q.** And the IC50 [1]?
**A.** The IC50 was 3580 nM.

**Q.** And the Activity (PC-3)?
**A.** The Activity was 31 nM.

**Q.** For `NC(=O)c1ccc(-n2c3c(c4ccccc42)C(=O)CCC3)c(-c2ccccc2)c1`, which Activity [2] is on record?
**A.** The Activity was > 10 µM.

**Q.** For `CC(=O)c1cn(-c2ccc(C(N)=O)cc2Cl)c2ccccc12`, which Activity [2] is on record?
**A.** Its Activity is 0.14 µM.

**Q.** With `CC[C@]1(O)C[C@@H]2CN(CCc3c([nH]c4ccccc34)[C@@](C(=O)OC)(c3cc4c(cc3OC)N(C)[C@H]3[C@@](O)(C(=O)OC)[C@H](OC(C)=O)[C@]5(CC)C=CCN6CC[C@]43[C@@H]65)C2)C1` [VINBLASTINE] as the molecule, how does the IC50 [3] read?
**A.** The IC50 was 1150 nM.

**Q.** With `NC(=O)c1ccc(-n2c3c(c4ccccc42)C(=O)CCC3)cc1NCc1ccccc1` as the molecule, how does the Activity [2] read?
**A.** Its Activity is 6.2 µM.

**Q.** For `COc1cc(-n2c3c(c4ccccc42)C(=O)CCC3)ccc1C(N)=O`, which Activity [2] is on record?
**A.** The Activity was > 10 µM.

**Q.** For `C=CCNc1cc(-n2c3c(c4ccccc42)C(=O)CCC3)ccc1C(N)=O`, which Activity [2] is on record?
**A.** Its Activity is 0.99 µM.

**Q.** Which Activity [2] does the source give for `N#Cc1ccc(-n2c3c(c4ccccc42)C(=O)CCC3)c(C(F)(F)F)c1` here?
**A.** The Activity was > 10 µM.

**Q.** Which results are given for `NC(=O)c1ccc(-n2c3c(c4ccccc42)C(=O)CCC3)c(Cl)c1`?
**A.** Activity (HT-29): 300 nM; Activity (K562): 210 nM; Activity (MCF7): 85 nM; Activity [2]: 0.42 µM; Activity (SW-620): 94 nM; Activity (PC-3): 140 nM

**Q.** Which results are given for `NC(=O)Nc1ccc(-n2c3c(c4ccccc42)C(=O)CCC3)c(Cl)c1`?
**A.** Activity (HT-29): 3.2 nM; Activity (K562): 5.5 nM; Activity [4]: inactive; Activity (MCF7): 0.87 nM; Activity [5]: Active; Activity (Leukemia cell [6]): Active; Activity [2]: 0.12 µM; Activity (Leukemia cell [7]): Active; Activity (SW-620): 15 nM; IC50 [3]: 1640 nM; IC50 [1]: 1610 nM; Activity (PC-3): 790 nM

**Q.** Which Activity [2] does the source give for `O=C(O)c1ccc(-n2c3c(c4ccccc42)C(=O)CCC3)c(Br)c1` here?
**A.** The Activity was > 10 µM.

**Q.** For `NC(=O)c1ccc(-n2c3c(c4ccccc42)C(=O)CCC3)c(F)c1`, which Activity [2] is on record?
**A.** The Activity was 5 µM.

**Q.** For `COc1cc(C(N)=O)ccc1-n1cc(C(C)=O)c2ccccc21`, which Activity [2] is on record?
**A.** The Activity was 0.17 µM.

**Q.** For `N=C(NO)c1ccc(-n2c3c(c4ccccc42)C(=O)CCC3)c(Br)c1`, which Activity [2] is on record?
**A.** The Activity was 2 µM.

**Q.** Which Activity [2] does the source give for `COc1cc2c(c(OC)c1OC)-c1ccc(OC)c(=O)cc1[C@@H](NC(C)=O)CC2` here?
**A.** The Activity was 0.043 µM.

**Q.** With `NC(=O)c1ccc(-n2c3c(c4ccccc42)C(=O)CCC3)c(C(F)(F)F)c1` as the molecule, how does the Activity [2] read?
**A.** Its Activity is 0.24 µM.

**Q.** With `CC(=O)Nc1ccc(-n2c3c(c4ccccc42)C(=O)CCC3)c(Cl)c1` as the molecule, how does the Activity [2] read?
**A.** The Activity was 0.41 µM.

**Q.** Which Activity (HT-29) does the source give for `NC(=O)c1ccc(-n2c3c(c4ccccc42)C(=O)CCC3)cc1` here?
**A.** The Activity was 4500 nM.

**Q.** And the Activity (K562)?
**A.** Its Activity is 2000 nM.

**Q.** And the Activity (MCF7)?
**A.** The Activity was 2300 nM.

**Q.** What about the Activity [2] of the same molecule?
**A.** The Activity was > 10 µM.

**Q.** And the Activity (SW-620)?
**A.** The Activity was 1200 nM.

**Q.** What about the Activity (PC-3) of the same molecule?
**A.** Its Activity is 7000 nM.

**Q.** With `NC(=O)c1ccc(-n2c3c(c4ccccc42)C(=O)CCC3)cc1Br` as the molecule, how does the Activity [2] read?
**A.** The Activity was > 10 µM.

**Q.** For `CC(C)C(=O)c1cn(-c2ccc(C(N)=O)cc2Cl)c2ccccc12`, which Activity [2] is on record?
**A.** The Activity was 5 µM.

**Q.** With `COc1cc(C(N)=O)ccc1-n1c2c(c3ccccc31)C(=O)CCC2` as the molecule, how does the Activity [2] read?
**A.** Its Activity is 0.42 µM.

**Q.** Which Activity [2] does the source give for `NC(=O)c1ccc(-n2c3c(c4ccccc42)C(=O)CCC3)c(N)c1` here?
**A.** Its Activity is 10 µM.

**Q.** For `Cc1cc(C(N)=O)ccc1-n1c2c(c3ccccc31)C(=O)CCC2`, which Activity [2] is on record?
**A.** The Activity was 0.96 µM.

**Q.** For `COc1cc(-n2cc(C(C)=O)c3ccccc32)ccc1C(N)=O`, which Activity [2] is on record?
**A.** Its Activity is 0.1 µM.

**Q.** With `NC(=O)c1ccc(-n2c3c(c4ccccc42)C(=O)CCC3)c(Br)c1` as the molecule, how does the Activity [2] read?
**A.** The Activity was 0.15 µM.

**Q.** Which results are given for `CC(=O)c1cn(-c2ccc(C(N)=O)cc2Cl)c2cc(Cl)ccc12`?
**A.** Activity (HT-29): 9.3 nM; Activity (K562): 0.085 nM; Activity (MCF7): 1.2 nM; Activity [2]: 0.21 µM; Activity (SW-620): 6.5 nM; Activity (PC-3): 2.2 nM
